{"source": "patent US20250003994A1", "about": "“DEVICE AND METHOD FOR TREATING TISSUE OXYGEN DEFICIENT CONDITIONS” (IP SCIENCE LIMITED, priority 2021, published 2025)", "type_in_all_cases": "in vivo, human", "key": {"[1]": {"tested_on": "clinically healthy volunteers", "assay": "Oxygen carrying capacity of plasma lipoproteins (OCCL) by catalymetry assay, one-month intake, Example 2.4", "settings": "for Effect of regular intake on OCCL (in words): 4 weeks daily intake", "experimental": "6 healthy volunteers (HV, 42-61 years old) and 4 CAD patients, eligible for the treadmill test (age 45-59 years old) were recruited for this study. Apart from assessing changes their electrocardiogram (ECG), pulse and blood pressure, samples and level of oxygen carrying capacity of plasma lipoproteins, OCCL, from venous blood was analyzed prior to the test and within 3-4 minutes afterward. The measurement was conducted using a catalymetry assay. In short, 10 μl of citrate plasma was added to 0.98 ml cuvette of 0.05 M phosphate buffer with 0.1 mM sodium ethylenediamine tetraacetic acid (EDTA-Na), containing 10^−6 M phenazine methosulphate and 10^−4 M nitro blue tetrazolium chloride (NBT). The reaction was initiated by adding 10 μl of 10^−4 M NADH.\nThe difference in absorption at λ=560 nm between starting point and after 60 seconds was measured by spectroscopy. This difference was used to measure oxygen-depended reduction of NBT. The results of this reaction were compared with the control reaction where instead of plasma 10 μl of the reaction buffer was added. The difference in the reduction of NBT with the analyzed sample and the control was used to calculate the amount of O2 in added plasma lipoproteins.\nIn this section the effects of regular intake of validated bioactive nutraceuticals on blood OCCL and tissue oxygen saturation (StO2) was evaluated.\n(§1) For this study […] clinically healthy volunteers were recruited (age 35-57 years old), 30 male and 34 female). The subjects had not taken any medication or dietary supplements prior to the experiment. The volunteers were randomized and divided into 7 groups of 8 persons each. The participants were given a one-month supply of a particular nutraceutical or pharmaceutical. […] The daily dose for each product was taken in 1 capsule with the main meal of the day. The blood and StO2 were analyzed prior the trial and after (4 weeks). OCCL was analyzed as described above."}, "[2]": {"tested_on": "clinically healthy volunteers", "assay": "Tissue oxygen saturation (StO2) by near-infrared spectroscopy with stagnant ischemia, Example 2.4", "settings": "for StO2: area under hyperemic curve post occlusion; for Effect of regular intake on StO2 / peripheral tissue oxygenation (in words): 4 weeks daily intake", "experimental": "as §1\nThenar eminence and forearm muscles of the patients were used as a tissue target for the assessment of StO2, or combined level of oxygenated hemoglobin and myoglobin. StO2 was assessed by continuous wavelength near-infrared spectroscopy, NIRS, with wide-gap second-derivative (In Spectra, Hutchinson Technology, MN, USA), as known in the art. The measurements were taken at different time points. The recording was initiated after 15 min of rest in a supine position, before occlusion of the brachial artery. It was then continued during stagnant ischemia induced by rapidly inflating a cuff to 50 mm Hg above systolic BP. The ischemia lasted for 3 min, and the recording period lasted for an additional 5 min, until StO2 was stabilized\nThe area under the hyperemic curve, AUC, of the recorded signal for the settling time in the post occlusion period was then calculated in AUC mm, or % O2/min. All body and vascular parameters were recorded in the morning between 8 and 10 a.m."}, "[3]": {"tested_on": "clinically healthy volunteers", "assay": "Blood LDL concentration, one-month intake, Example 2.4", "source_text": "Since oxygen solubility is higher in lipids than in aqueous media, it was interesting to examine a possible link between changes in OCCL and lipoprotein concentration in blood.\nas §1"}, "[4]": {"settings": "4 w, daily dose in 1 capsule with main meal"}, "[5]": {"settings": "0 w (prior the trial), 8 per group"}}}
{"smiles": "CCC(C)(C)C(=O)O[C@H]1C[C@@H](C)C=C2C=C[C@H](C)[C@H](CC[C@@H]3C[C@@H](O)CC(=O)O3)[C@H]21", "note": "[Simvastatin, reference compound]", "values": [{"measurement": "OCCL", "setting": "[1]; 0 w (prior the trial)", "value": "451 ± 51 ΔE at λ = 560 nm × 10^3"}, {"measurement": "OCCL", "setting": "[1]; [4]", "value": "504 ± 53 ΔE at λ = 560 nm × 10^3"}, {"measurement": "StO2", "setting": "[2]; 0 w (prior the trial)", "value": "70 ± 0.72", "unit": "AUC mm"}, {"measurement": "StO2", "setting": "[2]; [4]", "value": "73 ± 0.81", "unit": "AUC mm"}]}
{"smiles": "CC(C)=CCC/C(C)=C/C=C/C(C)=C/C=C/C(C)=C/C=C/C=C(C)/C=C/C=C(C)/C=C/C=C(\\C)CCC=C(C)C", "note": "[Lycopene]", "values": [{"measurement": "OCCL", "setting": "[1]; 0 w (prior the trial)", "value": "648 ± 41 ΔE at λ = 560 nm × 10^3"}, {"measurement": "OCCL", "setting": "[1]; [4]", "value": "786 ± 39 ΔE at λ = 560 nm × 10^3"}, {"measurement": "StO2", "setting": "[2]; 0 w (prior the trial)", "value": "75 ± 0.73", "unit": "AUC mm"}, {"measurement": "StO2", "setting": "[2]; [4]", "value": "85 ± 0.61", "unit": "AUC mm"}, {"measurement": "LDL", "setting": "[3]; [5]", "value": "156 ± 6.1", "unit": "mg/dL"}, {"measurement": "LDL", "setting": "[3]; [4]", "value": "135 ± 7.0", "unit": "mg/dL"}]}
{"smiles": "CC/C=C\\C/C=C\\C/C=C\\C/C=C\\C/C=C\\C/C=C\\CCC(=O)O", "note": "[DHA Omega 3]", "values": [{"measurement": "OCCL", "setting": "[1]; 0 w (prior the trial)", "value": "626 ± 34 ΔE at λ = 560 nm × 10^3"}, {"measurement": "OCCL", "setting": "[1]; [4]", "value": "639 ± 42 ΔE at λ = 560 nm × 10^3"}, {"measurement": "Effect of regular intake on OCCL (in words)", "setting": "[1]", "value": "did not affect"}, {"measurement": "StO2", "setting": "[2]; 0 w (prior the trial)", "value": "74 ± 0.71", "unit": "AUC mm"}, {"measurement": "StO2", "setting": "[2]; [4]", "value": "76 ± 0.92", "unit": "AUC mm"}, {"measurement": "Effect of regular intake on StO2 / peripheral tissue oxygenation (in words)", "setting": "[2]", "value": "did not affect"}, {"measurement": "LDL", "setting": "[3]; [5]", "value": "155 ± 9.2", "unit": "mg/dL"}, {"measurement": "LDL", "setting": "[3]; [4]", "value": "154 ± 7.5", "unit": "mg/dL"}]}
{"smiles": "C=C1CC[C@H](O)C/C1=C/C=C1\\CCC[C@]2(C)[C@@H]([C@H](C)CCCC(C)C)CC[C@@H]12", "note": "[Vitamin D3]", "values": [{"measurement": "OCCL", "setting": "[1]; 0 w (prior the trial)", "value": "412 ± 48 ΔE at λ = 560 nm × 10^3"}, {"measurement": "OCCL", "setting": "[1]; [4]", "value": "443 ± 51 ΔE at λ = 560 nm × 10^3"}, {"measurement": "Effect of regular intake on OCCL (in words)", "setting": "[1]", "value": "did not affect"}, {"measurement": "StO2", "setting": "[2]; 0 w (prior the trial)", "value": "66.8 ± 6.0", "unit": "AUC mm"}, {"measurement": "StO2", "setting": "[2]; [4]", "value": "71.2 ± 6.8", "unit": "AUC mm"}, {"measurement": "Effect of regular intake on StO2 / peripheral tissue oxygenation (in words)", "setting": "[2]", "value": "did not affect"}, {"measurement": "LDL", "setting": "[3]; [5]", "value": "156 ± 8.4", "unit": "mg/dL"}, {"measurement": "LDL", "setting": "[3]; [4]", "value": "144 ± 5.9", "unit": "mg/dL"}]}
{"smiles": "CC1=C(/C=C/C(C)=C/C=C/C(C)=C/C=C/C=C(C)/C=C/C=C(C)/C=C/C2=C(C)C(=O)[C@@H](O)CC2(C)C)C(C)(C)C[C@H](O)C1=O", "note": "[Astaxanthin]", "values": [{"measurement": "OCCL", "setting": "[1]; 0 w (prior the trial)", "value": "539 ± 52 ΔE at λ = 560 nm × 10^3"}, {"measurement": "OCCL", "setting": "[1]; [4]", "value": "770 ± 57 ΔE at λ = 560 nm × 10^3"}, {"measurement": "StO2", "setting": "[2]; 0 w (prior the trial)", "value": "77 ± 0.74", "unit": "AUC mm"}, {"measurement": "StO2", "setting": "[2]; [4]", "value": "87 ± 0.84", "unit": "AUC mm"}, {"measurement": "LDL", "setting": "[3]; [5]", "value": "153 ± 7.3", "unit": "mg/dL"}, {"measurement": "LDL", "setting": "[3]; [4]", "value": "151 ± 6.2", "unit": "mg/dL"}]}
{"smiles": "COC1=C(OC)C(=O)C(C/C=C(\\C)CC/C=C(\\C)CC/C=C(\\C)CC/C=C(\\C)CC/C=C(\\C)CC/C=C(\\C)CC/C=C(\\C)CC/C=C(\\C)CC/C=C(\\C)CCC=C(C)C)=C(C)C1=O", "note": "[Coenzyme Q10]", "values": [{"measurement": "OCCL", "setting": "[1]; 0 w (prior the trial)", "value": "505 ± 66 ΔE at λ = 560 nm × 10^3"}, {"measurement": "OCCL", "setting": "[1]; [4]", "value": "593 ± 64 ΔE at λ = 560 nm × 10^3"}, {"measurement": "Effect of regular intake on OCCL (in words)", "setting": "[1]", "value": "increase in OCCL"}, {"measurement": "StO2", "setting": "[2]; 0 w (prior the trial)", "value": "75.0 ± 7.4", "unit": "AUC mm"}, {"measurement": "StO2", "setting": "[2]; [4]", "value": "84.0 ± 8.5", "unit": "AUC mm"}, {"measurement": "Effect of regular intake on StO2 / peripheral tissue oxygenation (in words)", "setting": "[2]", "value": "significant improvement of peripheral tissue oxygenation"}, {"measurement": "LDL", "setting": "[3]; [5]", "value": "143 ± 5.7", "unit": "mg/dL"}, {"measurement": "LDL", "setting": "[3]; [4]", "value": "140 ± 4.2", "unit": "mg/dL"}]}
